| Structure (SMILES) | melting point [°C] |
| --- | --- |
| CCCCCCCCCCCCCCCCc1cc(S)c(Sc2nnc(SCC(=O)O)s2)cc1O | 71 to 76 |
| Cc1ncc(CN2C(=O)c3ccccc3C2=O)n1-c1ccc(Cl)cc1C(=O)c1ccccc1F | 192 to 196 |
| COc1ccc(-c2cnc3cc4cn[nH]c4cc3n2)cc1F | 175 to 179 |
| OCC1OC(n2cc(COc3ccc(C4=NC(=Nc5[nH]c(-c6ccc(O)cc6)cc5-c5ccccc5)C(c5ccccc5)=C4)cc3)nn2)C(O)C(O)C1O (stereo unspecified) | 180 to 182 |
| O=c1ccn(-c2cccc(C(F)(F)F)c2)nc1-c1cn(C(c2ccccc2)(c2ccccc2)c2ccccc2)nc1-c1ccccc1 | 216 to 218 |
| CCOC(=O)/C=C/c1cnc(-c2ccc(OCc3ccccc3)c(C34CC5CC(CC(C5)C3)C4)c2)nc1 | 164 to 167 |
| COCCCNc1nc(Cl)cc(Cl)n1 | 48 |
| Nc1ccc(C(c2ccc(N)c(N)c2)(C(F)(F)F)C(F)(F)F)cc1N | 218 to 220 |
| COC(=O)CCCc1cc2cc(C(F)(F)F)ccc2n1S(=O)(=O)c1ccc2nc(C)sc2c1 | 163 to 168 |
| OCC1OC(n2cnc3c(NCC(c4ccccc4)c4ccc(F)cc4)nc(Cl)nc32)C(O)C1O (stereo unspecified) | 120 to 123 |
| CCCCc1ncc(CO)c(NCc2ccc(-c3ccccc3)c(-c3nnnn3C(c3ccccc3)(c3ccccc3)c3ccccc3)c2)n1 | 126 to 129 |
| CC(=O)Sc1c(F)c(F)c(C=O)c(F)c1F | 86 to 87 |
| Cn1c(COc2ccc(CC3SC(=O)N(C(c4ccccc4)(c4ccccc4)c4ccccc4)C3=O)cc2)nc2cncnc21 (stereo unspecified) | 55 to 65 |
| CCOC(=O)N[C@H](C(=O)NN(Cc1ccc(-c2cncs2)cc1)C[C@H](O)[C@H](Cc1ccccc1)NC(=O)[C@@H](NC(=O)OC)C(C)C)C(C)C | 243 to 244 |
| CCCc1cnc(N2CCC(c3ccc(COc4ccc(C#N)c(F)c4)nc3)CC2)nc1 | 118 to 120 |
| c1cc(-c2ccc(-c3cn([C@H]4CN5CCC4CC5)nn3)s2)ccc1CN1CCCCC1 | 230 |
| COc1cc(Nc2c(C#N)cnc3cc(-c4ccc(CN5CCC(O)CC5)s4)ccc23)c(Cl)cc1Cl | 120 to 123 |
| CC(C)(C)c1cc(Cn2c(=O)n(Cc3cc(C(C)(C)C)c(O)c(C(C)(C)C)c3)c(=O)n(Cc3cc(C(C)(C)C)c(O)c(C(C)(C)C)c3)c2=O)cc(C(C)(C)C)c1O | 218 to 219 |
| Cc1cc(F)ccc1C=CC#N | 86 to 87 |
| Cc1noc(NS(=O)(=O)c2ccccc2-c2ccc(-c3ncco3)cc2COc2ccc(-c3ccccc3)cc2)c1C | 95 to 105 |
| CSc1nc(Br)cc(Br)n1 | 82 to 84 |

| Structure (SMILES) | melting point [°C] |
| --- | --- |
| OCc1ccc(-c2ccc(-c3cn([C@H]4CN5CCC4CC5)nn3)cc2)s1 | 234 |
| CC(C)(C)P(c1cccc2ccccc12)C(C)(C)C | 95 to 97 |
| CCOC(=O)CC(c1ccccc1)C(C#N)c1ccccc1 (stereo unspecified) | 60.5 to 63 |
| CN(C)C(=N[N+](=O)[O-])N(C)Cc1cnc(Cl)s1 | 101 to 102 |
| CC(C)C(c1cncnc1C(F)(F)F)N(C)C(=O)Cc1ccccc1 (stereo unspecified) | 106 to 109 |
| Cc1cc(NS(=O)(=O)c2ccc(Cl)cc2)cc(C)c1S(=O)(=O)C[N+](=O)[O-] | 160 to 162 |
| COc1cccc([C@]23CCN(C)C[C@@H]2CCC2(C3)OCCO2)c1 (relative stereo) | 124 to 126 |
| CC(C)(C)C(=O)NNc1cc(F)c(C#N)cc1F | 167 |
| O=C(NCCO[N+](=O)[O-])c1ccsc1 | 100 to 102 |
| N#Cc1ccc(N2CCC[C@H]2C(N)=O)c2ccccc12 | 177 to 178 |
| CCONC(=O)NNC(=O)CC | 122 |
| N#Cc1cnc(NS(=O)(=O)c2cccc(Cl)c2Cl)c(OCc2cccnc2)n1 | 222 to 224 |
| Cc1oc(-c2ccco2)nc1COc1ccc(Cn2cc(CCC(=O)O)c(OCc3ccccc3)n2)cc1 | 104 to 105 |
| N#CCCC=C(c1ccccc1)c1ccccc1 | 64 to 66 |
| N#CC(C#N)=CN(N=C(C#N)C#N)c1ccc(Cl)c(Cl)c1 | 162 to 164 |
| O=C(CCCl)c1cc2c(s1)CCCC2 | 51 to 53 |
| CCCc1c(OCc2ccc(C(=O)O)cc2)ccc(C(C)=O)c1O | 188 |
| COC(=O)[C@@H]1O[C@H](c2ccc(OC)cc2)N(C(=O)OC(C)(C)C)[C@H]1c1ccccc1 | 104 to 105 |
| NC(=O)c1ccnc(-c2ccc(Oc3ccc(Cl)cc3F)cc2)n1 | 198 to 200 |
| Brc1cnc(-c2ccccc2)c2ccccc12 | 123 to 125 |

Results, then the compound that gave them:

| melting point [°C] | Structure (SMILES) |
| --- | --- |
| 200 to 205 | O=C(O)c1cc(S(=O)(=O)N2CCCCC2)c(Cl)cc1Cl |
| 107 to 108 | CC(=O)N1CCc2c(N)cccc2C1 |
| 104 | CCC(C)(C)c1ccc(OCC2CN=C(N)O2)cc1 (stereo unspecified) |
| 138 to 139 | CCOC(=O)C1=Cc2cc(C(F)(F)F)ccc2NC1C(F)(F)F (stereo unspecified) |
| 143 | C=CC(=O)Nc1cc2c(N(C(C)=O)c3ccc(F)c(Cl)c3)ncnc2cc1OCCCN1CCOCC1 |
| 72 to 73 | C=C(CC1(C)C(=O)c2ccc(Cl)cc2C1=O)c1cccc(Cl)n1 (stereo unspecified) |
| 173 to 174 | CC(C)Nc1c(-c2ccc(S(C)(=O)=O)cc2)cnn(CC(F)(F)F)c1=O |
| 182 to 183 | CCN1C=C(C(=O)O)C(=O)CC1c1ccc(OC)c(OC)c1 (stereo unspecified) |
| 105 | O=C(O)CCCCc1nn(-c2cccc(C(F)(F)F)c2)c2c1CCCC2 |
| 208 to 211 | O=C1c2ccccc2C(=O)c2cc(S(=O)(=O)O)ccc21 |
| 106 to 107 | COCn1c(-c2nccs2)c(Cl)c2cccc([N+](=O)[O-])c21 |
| 98 to 99 | Cc1nccn1-c1cccc(Nc2ccc(-c3ccoc3)cc2N)c1 |
| 88 to 90 | C=C(C)C(=O)Oc1ccccc1NS(C)(=O)=O |
| 210 to 211 | C=C(C)CN1CCN(CCC(=O)N2c3ccccc3C(=O)Nc3cccnc32)CC1 |
| 166 to 168 | CCOC(=O)c1c2n(c3cc(F)c(F)cc3c1=O)CCCC2 |
| 74 to 77 | COC(=O)Cc1ccc(-c2ccc(F)cc2F)c(F)c1 |
| 116 to 118 | CN1C(=O)C2C3C=CC(C3)C2(c2ccc3c(c2)OCO3)C1=O (stereo unspecified) |
| 175 to 178 | O=S(=O)(Nc1ccc(Oc2ccc3cccnc3c2)cc1)c1ccc(F)cc1 |
| 68 to 70 | OCCN1CCN(CC2CCn3c(nc4ccccc43)S2)CC1 (stereo unspecified) |
| 150 | C=C(Br)CN1Cc2cccc3[nH]c(=O)n(c23)CC1C (stereo unspecified) |
| 230 to 232 | CN1CC(=O)Nc2cccc(Cl)c2C1=O |
| 124 to 125 | COC(=O)c1ccccc1OCCN1CCC(c2c[nH]c3ccccc23)CC1 |
| 165 to 166 | CC#Cc1ccc(NC(=O)c2ccccc2NCc2ccncc2)cc1C(F)(F)F |
| 121 to 124 | COc1ccc(Cc2cc(O)ccc2OC)cn1 |
| 206 to 207 | Cc1cc2c(cc1C)C1(CO2)C(=O)Nc2ccccc21 (stereo unspecified) |
| 81 | CC(C)(S)CN1CCN(Cc2ccc(O)cc2)CC1 |
| 188 | CC(=O)Nc1ccc(S(=O)(=O)CCCl)cc1 |
| 156 to 158 | COC(=O)c1nc(-c2ccc(Cl)c(N(C)C)c2F)nc(N)c1C1CC1 |

| melting point [°C] | Structure (SMILES) |
| --- | --- |
| 96 to 97 | CCCC(C)SC1NN=C(c2ccncc2)N1c1ccccc1 (stereo unspecified) |
| 125 to 127 | COC(=O)[C@@H]1C(=O)N(C)c2ccccc2C[C@H]1c1ccc2c(c1)OCO2 (racemic) |
| 133 to 134 | CCOC(=O)C(O)=Cc1ncc(CCc2ccc(F)cc2)cn1 |
| 74 to 76 | Cc1nnc(-c2ccccc2O)o1 |
| 214 to 218 | Cc1ccc(-c2ccc(C(=O)Nc3cc4ncc(CN5CCCC5)cc4cc3C)cn2)cc1 |
| 275 to 280 | Cc1nn(-c2ccccc2)nc1C(=O)N1CCC2(CC1)CSC1=C(O2)c2ccccc2C(=O)C1=O |
| 180 | CC(=NO)[C@H]1C[C@H](C(=O)OC(C)(C)C)N(C(=O)CNC(=O)Nc2cccc(C(=O)O)c2)[C@@H]1c1ccccc1 (racemic) |
| 200 to 201 | CC(C)n1nc(-c2c(-c3ccccc3)nn3ccc(C(=O)NC(C)(C)C)cc23)ccc1=O |
| 202 to 203 | COc1ccnc(N2CCN(C(=O)c3cc4ccccc4[nH]3)CC2)n1 |
| 130 to 131 | COC(=O)CCc1sc(N)nc1-c1ccccc1 |
| 206 to 208 | CCCC12CCC(=O)C=C1c1c(cc(OCC(=O)O)c(Cl)c1Cl)C2O (stereo unspecified) |
| 209 to 210 | Cc1nc2ccc3cnc(N(C)c4cccc([N+](=O)[O-])c4)nc3c2s1 |
| 176 | COC(=O)c1ccccc1S(=O)(=O)N(n1cnn(-c2nc(OC)cc(OC)n2)c1=O)S(=O)(=O)c1ccccc1C(=O)OC |
| 140 to 142 | CC(=O)NCc1ccc(C(=O)CCCN2CCC(c3noc4cc(F)ccc34)CC2)s1 |
| 149 to 150 | Cc1c(CC(=O)O)oc2ccc(Cl)cc12 |
| 129 to 131 | c1ccc2c(c1)CCN(Cc1cc3ccccc3[nH]1)C2 |
| 58 to 60 | O=C(O)COc1cccc(-c2ccccc2OC2OC(CO)C(O)C(O)C2O)c1 (stereo unspecified) |
| 240 to 242 | O=C(O)c1cccnc1NCc1ccc(Cl)cc1 |
| 154 to 155 | O=C(O)CCc1nc(-c2cc3ccccc3o2)no1 |
| 278 to 279 | CC(C)(C(=O)c1ccc(OCC(=O)O)cc1)N1CCN(c2ccncc2)CC1 |
| 148 | c1ccc2oc(NCc3ccncc3)nc2c1 |
| 184 to 185 | Nc1cc(-n2c(=O)n(-c3ccccc3)c3ccccc32)ccn1 |
| 216 | COc1ccccc1-c1cc2[nH]c3ccc(O)cc3c2c2c1C(=O)NC2=O |
| 186 to 188 | CCOc1nc2c(cc1C)C(=O)c1ccccc1C2=O |
| 68 | O=C(NC/C=C/c1ccccc1)c1ccccc1F |
| 127 to 128 | C=CCOC(=O)c1cccc(C)c1OS(=O)(=O)NC(=O)Nc1nc(C)cc(OC)n1 |
| 189 to 193 | CN1CCC(O)(c2cn(-c3ccnc(NC4CCCC4)n3)c(-c3cccc(C(F)(F)F)c3)n2)CC1 |

— a melting point compilation (Tetko et al.; mined from patent text by program, amines drawn as free bases though some values may be those of a salt)
